Measurements from patent publication US6962909B2, “Treatment of neovascularization disorders with squalimine” (Genaera Corporation, priority 1995, dated 2005).
≈ marks a conversion by molar mass, not a printed value.

Assays:
[1] = test system: E. coli; assay: Antibiotic activity, MIC; type: cell-based; conditions: Escherichia coli
[2] = test system: C. albicans; assay: Antibiotic activity, MIC; conditions: Candida albicans
[3] = test system: S. aureus; assay: Antibiotic activity, MIC; type: cell-based; conditions: Staphylococcus aureus
[4] = test system: P. aerug; assay: Antibiotic activity, MIC
[5] = test system: Stage 59-60 Xenopus tadpoles; assay: Xenopus tadpole assay; type: in vivo, Xenopus laevis; conditions: 10 μg/ml in water
Source text: A newly developed assay employing tadpoles, preferably Xenopus laevis Stages 59-60, were employed to study the effect of a compound by monitoring capillary occlusion in the tadpole's tail. […] The compounds of the invention affect the shape, viability and integrity of the embryonic tissues while not affecting the adult tissues, providing a powerful, highly specific screen. For example, substances that destroy all of the animal's epithelium, both adult and embryonic, could be regarded as toxic.
In this assay, tadpoles are introduced into Petri dishes containing a solution of the test compound in distilled water, preferably about 100 ml. The preferred concentration of the test compound is from about 1 μg/ml to about 10 μg/ml. The volume of liquid is sufficient for the animal to swim freely and drink from the solution. Thus, the effect observed results from oral absorption and subsequent systemic distribution of the agent. If the volume of liquid is not sufficient to permit oral intake, the effects that are observed would result from absorption through the surface epithelium. Thus, this simple assay can identify if an compound has characteristics of oral availability.
After an amount of time, typically about 60 minutes, the occlusion of blood flow through capillaries in the tadpole's tail are observed under an inverted microscope at a magnification of roughly 100×.
The tadpole assay described above provides an advantageous way to determine the pharmacological targets of each steroid when introduced into a mammal, and to determine pharmacological categories into which synthetic compounds belong. In the assay, each of the steroids was dissolved in 100 ml of distilled water at a concentration of 10 μg/ml. Stage 59-60 Xenopus tadpoles were introduced and evaluated by light microscopy and gross observation 1 hour later.

[6] = test system: vitelline capillaries of 3- to 5-day chick embryo; assay: Chick embryo vitelline capillary regression assay; type: in vivo; set-up: key to Vascular reactivity (capillary regression): + = Vascular reactivity; 0 = No vascular reactivity; +/− = Equivocal reactivity; conditions: 60 minutes
Experimental: Using the chick embryo vitelline capillaries assay, compounds were tested for their ability to induce capillary regression. Each compound was applied in 0.1 ml of 15% Ficol 400 and PBS onto the embryo, and vascular regression was assessed after 60 minutes.
The 3-day chick embryo consists of an embryonic disc from which numerous vessels emerge and return, forming a “figure 8”-shaped structure—the embryo in the center with vascular loops extending outward over both poles. […] Following a lag period of around 15 minutes, the constriction of continuity between capillary and secondary vessels, generally on the “venous” side, was observed. Continued pulsatile blood flow progressed, resulting in a “swelling” of the blind tube, followed by a pinching off of the remaining connection and formation of an enclosed vascular sac resembling a “blood island.” This process progressed until only the largest vessels remained intact.

[7] = test system: human microvascular cells; assay: Endothelial cord formation assay; type: cell-based; also: key: + = Inhibition of angiogenesis; − = No inhibition of angiogenesis; T = Toxic; *= cell rounding @ 10 µg/ml
Source text: Endothelial cells have the capacity in vitro to form tubular aggregates resembling capillaries in various early stages of formation. This conversion occurs under relatively specific conditions, in which essential growth factors along with an effective substratum are provided. It has been shown that both the interaction of growth factors with the endothelial cell and its attachment to a substratum activate the NHE. The activation of this exchanger is believed to be required for subsequent morphologic transformation of the endothelial cell into a multicellular tubular structure.
To assess the effect of compounds on the cord-like structures formed by human microvascular cells when plated in the presence of VGEF (Vascular Endothelial Growth Factor) and basic fibroblast growth factor on a collagen matrix, a standard cord formation assay was used.

Structure (SMILES)	MIC [1] [µg/mL]	MIC [3] [µg/mL]	MIC [4] [µg/mL]	Pharmacological category in tadpole assay (similarity to a reference steroid) [5]	Vascular reactivity (capillary regression) ([6]; 1 μg applied)	further results
COC(O)CCC(C)[C@H]1CCC2C3C(CC[C@@]21C)[C@@]1(C)CC[C@H](NCCCNCCCCNCCCN)C[C@@H]1C[C@H]3O (stereo partly drawn)	64 (≈ 108 µM)	2 to 4 (≈ 3.37 to 6.75 µM)	128 (≈ 216 µM)			MIC [2]: 16 µg/mL (≈ 27 µM)
C[C@@H](O)C1CCC2C3CC[C@H]4C[C@@H](NCCCNCCCCN)CC[C@]4(C)C3CC[C@@]21C (stereo partly drawn)	32 to 64 (≈ 71.5 to 143 µM)	4 (≈ 8.93 µM)	256 (≈ 572 µM)			MIC [2]: 64 µg/mL (≈ 143 µM)
C[C@@H](O)C1CCC2C3CC[C@H]4C[C@H](NCCCNCCCCN)CC[C@]4(C)C3CC[C@@]21C (stereo partly drawn)	64 (≈ 143 µM)	16 (≈ 35.7 µM)	128 (≈ 286 µM)			MIC [2]: 128 µg/mL (≈ 286 µM)
C=C(C)C(=O)CCC(C)[C@H]1CCC2C3C(CC[C@@]21C)[C@@]1(C)CC[C@H](NCCCNCCCCN)C[C@@H]1C[C@H]3O (stereo partly drawn)	32 (≈ 58.8 µM)	4 (≈ 7.35 µM)	128 (≈ 235 µM)			
CC(C)CCCC(C)[C@H]1CCC2C3C(CC[C@@]21C)[C@@]1(C)CC[C@@H](N)C[C@@H]1C[C@H]3O (stereo partly drawn)	> 256	2 (≈ 4.95 µM)	> 256			
CC(C)CCCC(C)[C@H]1CCC2C3C(CC[C@@]21C)[C@@]1(C)CC[C@H](NCCCNCCCCN)C[C@@H]1C[C@H]3O (stereo partly drawn) [Compound 371]				effects like those produced by compound 1436	+/−	Vascular reactivity (capillary regression) ([6]; 0.001 μg applied): 0; Vascular reactivity (capillary regression) ([6]; 0.01 μg applied): 0; Vascular reactivity (capillary regression) ([6]; 0.1 μg applied): 0; Vascular reactivity (capillary regression) ([6]; 10 μg applied): +
COC(=O)CCC(C)[C@H]1CCC2C3C(CC[C@@]21C)[C@@]1(C)CC[C@H](NCCN)C[C@H]1C[C@H]3O (stereo partly drawn) [Compound 409]				functionally similar to compound 1437	0	
COC(=O)CCC(C)[C@H]1CCC2C3C(CC[C@@]21C)[C@@]1(C)CC[C@@H](NCCN)C[C@H]1C[C@H]3O (stereo partly drawn) [Compound 410]				functionally similar to compound 1437	+	Effect on endothelial cord formation ([7]; 0.1 μg/ml): −; Effect on endothelial cord formation ([7]; 1.0 μg/ml): +; Vascular reactivity (capillary regression) ([6]; 0.001 μg applied): 0; Vascular reactivity (capillary regression) ([6]; 0.01 μg applied): +/−; Vascular reactivity (capillary regression) ([6]; 0.1 μg applied): +/−
CC(CCC(=O)O)[C@H]1CCC2C3C(CC[C@@]21C)[C@@]1(C)CC[C@@H](NCCCNCCCCNCCCN)C[C@H]1C[C@H]3O (stereo partly drawn) [Compound 412]				pharmacologic activity similar to that seen for FX 3	+	Effect on endothelial cord formation ([7]; 0.1 μg/ml): −; Effect on endothelial cord formation ([7]; 1.0 μg/ml): −; Effect on endothelial cord formation ([7]; 10.0 μg/ml): +; Vascular reactivity (capillary regression) ([6]; 0.001 μg applied): 0; Vascular reactivity (capillary regression) ([6]; 0.01 μg applied): 0; Vascular reactivity (capillary regression) ([6]; 0.1 μg applied): 0
CC(CCC(=O)O)[C@H]1CCC2C3C(CC[C@@]21C)[C@@]1(C)CC[C@H](NCCCNCCCCNCCCN)C[C@H]1C[C@H]3O (stereo partly drawn) [Compound 413]				effects like those produced by compound 1436	0	Effect on endothelial cord formation ([7]; 0.1 μg/ml): −; Effect on endothelial cord formation ([7]; 1.0 μg/ml): −; Effect on endothelial cord formation ([7]; 10.0 μg/ml): +
CC(CCC(=O)O)[C@H]1CCC2C3C(CC[C@@]21C)[C@@]1(C)CC[C@@H](NCCN)C[C@H]1C[C@H]3O (stereo partly drawn) [Compound 414]				pharmacologic activity similar to Fraction 1	0	
COC(=O)CCC(C)[C@H]1CCC2C3C[C@@H](O)[C@H]4C[C@@H](NCCN)CC[C@]4(C)C3CC[C@@]21C (stereo partly drawn) [Compound 432]				functionally similar to compound 1437		Effect on endothelial cord formation ([7]; 1.0 μg/ml): −; Effect on endothelial cord formation ([7]; 10.0 μg/ml): −
COC(=O)CCC(C)[C@H]1CCC2C3C[C@@H](O)[C@H]4C[C@@H](NCCCNCCCCNCCCN)CC[C@]4(C)C3CC[C@@]21C (stereo partly drawn) [Compound 466]				pharmacologic activity similar to that seen for FX 3		
CC(C)CCCC(C)[C@H]1CCC2C3C(CC[C@@]21C)[C@@]1(C)CC[C@@H](N)C[C@@H]1C[C@H]3O (stereo partly drawn) [Compound 1363]				pharmacologic activity similar to Fraction 1		
CC(CCC(=O)C(C)(C)OS(=O)(=O)O)[C@H]1CCC2C3C(CC[C@@]21C)[C@@]1(C)CC[C@H](NCCCNCCCCN)C[C@@H]1C[C@H]3O (stereo partly drawn) [FX1A]						Pharmacological response observed in tadpole ([5]; about 1 hour): fecal elimination is dramatically increased
